The values below come from patent publication US20230067910A1, “NOVEL COMPOUNDS FOR THE DIAGNOSIS, TREATMENT AND PREVENTION OF DISEASES ASSOCIATED WITH THE AGGREGATION OF ALPHA-SYNUCLEIN” (MODAG GMBH, priority 2019, published 2023).

The target of the test is T1, alpha-synuclein (sonicated fibrils) (Homo sapiens, UniProt P37840).
T1 construct: made in house; host or cells: E. coli
In words: Modified competition binding assay, protocol 3b, reference ligand [3H]-compound 2. Particulars: Table 5, reference ligand [3H]-compound 2 (1 nM). The procedure:
Alpha-synuclein and tau46 were purified from E. coli according to established protocols (Nuscher B, et al., J. Biol. Chem., 2004; 279(21):21966-75), Aβ1-42 was obtained from rPeptide, Watkinsville, Ga., USA. Fibrils were prepared by aggregation of recombinant protein via constant agitation. In detail, 70 μM of alpha-synuclein mixed with 100 mM NaCl in 50 mM Tris, pH 7.0+0.02% NaN3 were incubated at 1,400 rpm, 37° C. for 96 h. 10 μM of tau46 were incubated with 0.03 mg/ml heparin in 50 mM Tris, pH=7.0 at 1,000 rpm, 37° C. for 72 h. Aβ1-42 was solved in 20 mM NaPi, pH=8.0+0.2 mM EDTA+0.02% NaN3 (Deeg A A, et al., Biochim. Biophys. Acta, 2015; 1850(9): 1884-90; Goedert M, et al. Nature, 1996; 383(6600): 550-3).
For competition binding experiments, a fixed concentration of recombinant αSYN fibrils (sonicated, 15 nM/well) was incubated with 1 nM [^3H]-compound 1 or [3H]-compound 2 and decreasing concentrations of a serial dilution of non-labeled competitor (serial dilution 1:4 or 1:3.5 or 1:3 providing the concentration ranges of non-labeled competitor 1 μM-[…] 1 μM-4 nM or 1 μM-[…], respectively) in 30 mM Tris-HCl, 10% ethanol, 0.05% Tween20, pH 7.4 in a total volume of 200 μL/well. Plates were incubated for 4.5 hours at RT covered by removable sealing tape (PerkinElmer, Waltham, Mass., USA).
Filtration and readout were performed as described for saturation binding assays. [^3H]-labeled ligand binding [in CMP] was plotted against increasing competitor concentrations and data points were fitted using non-linear regression analysis to calculate the IC50 and Ki values (GraphPad Software, Inc., Version 7.03, La Jolla (Calif.), USA). In the competition binding assay with sonicated recombinant αSYN fibrils, the calculation of Ki values was done based on KD values of 0.6 nM and 0.2 nM for compound 1 and compound 2, respectively.
The fibril competition assay provides Ki values. Ki is a quantitative measure that represents the concentration of the non-radioactive tested compound (competitor ligand) required to replace 50% of a reference compound, in this case [H]-compound 1 (1 nM) or [H]-compound 2 (1 nM), which is bound to the target structures (1 nM), in our case recombinant alpha-synuclein and tau46 fibrils. This assay is suitable for a screening of non-radioactive ligands.

Turning to `Fc1cc(-c2cc(-c3ccc(N4CCOCC4)cc3)n[nH]2)ccn1` [Compound 27, 4-{4-[5-(2-fluoropyridin-4-yl)-1H-pyrazol-3-yl]phenyl}morpholine], the Ki was found to be 1.3 nM. Regarding `CNc1ccc(-c2cc(-c3cc(C)nc(Br)c3)[nH]n2)cc1` [Compound 38, 4-[5-(2-bromo-6-methylpyridin-4-yl)-1H-pyrazol-3-yl]-N-methylaniline], the Ki was found to be 113 nM. Take `CNc1ccc(-c2cc(-c3cc(Br)nc(Br)c3)[nH]n2)cc1` [Compound 37, 4-[5-(2,6-dibromopyridin-4-yl)-1H-pyrazol-3-yl]-N-methylaniline]: the Ki amounted to 16 nM. Take `CNc1ccc(-c2cc(-c3ccnc(Cl)n3)[nH]n2)cc1` [Compound 40, 4-[5-(2-chloropyrimidin-4-yl)-1H-pyrazol-3-yl]-N-methylaniline]: the Ki amounted to 3.9 nM. Turning to `CN(C)c1ccc(-c2nc(-c3ccnc(Br)c3)n[nH]2)cc1` [Compound 44, 4-[3-(2-bromopyridin-4-yl)-1H-1,2,4-triazol-5-yl]-N,N-dimethylaniline], the Ki turned out to be 0.6 nM.

Turning to `Fc1ccnc(-c2cc(-c3ccc4c(c3)OCO4)n[nH]2)c1` [Compound 54, 2-[3-(1,3-benzodioxol-5-yl)-1H-pyrazol-5-yl]-4-fluoropyridine], the Ki is 8.4 nM. As for `FCCN1CCN(c2ccc(-c3cc(-c4ccnc(Cl)c4)[nH]n3)cc2)CC1` [Compound 50, 1-{4-[5-(2-chloropyridin-4-yl)-1H-pyrazol-3-yl]phenyl}-4-(2-fluoroethyl)piperazine], the inhibition constant Ki amounted to 0.9 nM. On to `FCCNc1ccc(-c2cc(-c3ccnc(Br)c3)[nH]n2)cc1` [Compound 25, 4-[5-(2-bromopyridin-4-yl)-1H-pyrazol-3-yl]-N-(2-fluoroethyl)aniline], for which the Ki was found to be 0.7 nM. Take `Brc1cccc(-c2cc(-c3cnc4c(c3)OCO4)n[nH]2)c1` [Compound 34, 6-[5-(3-bromophenyl)-1H-pyrazol-3-yl]-1,3-dioxolo[4,5-b]pyridine]: the Ki came out at 41 nM.

On to `CNc1ccc(-c2cc(-c3cccc(Cl)n3)[nH]n2)cc1` [Compound 41, 4-[5-(6-chloropyridin-2-yl)-1H-pyrazol-3-yl]-N-methylaniline], for which the inhibitory constant (Ki) is 14 nM. On to `CCNc1ccc(-c2cc(-c3ccnc(Br)c3)[nH]n2)cc1` [Compound 23, 4-[5-(2-bromopyridin-4-yl)-1H-pyrazol-3-yl]-N-ethylaniline], for which the Ki was found to be 0.5 nM. The value for `CN(C)c1ccc(-c2cc(-c3cc(Cl)ncn3)[nH]n2)cc1` [Compound 43, 4-[5-(6-chloropyrimidin-4-yl)-1H-pyrazol-3-yl]-N,N-dimethylaniline] was 0.5 nM; that for `COCCN1CCN(c2ccc(-c3cc(-c4ccnc(Br)c4)[nH]n3)cc2)CC1` [Compound 51, 1-{4-[5-(2-bromopyridin-4-yl)-1H-pyrazol-3-yl]phenyl}-4-(2-methoxyethyl)piperazine] was 2.7 nM. Consider `CN(C)c1ccc(-c2nc(-c3ccnc(Br)c3)c[nH]2)cc1` [Compound 45, 4-[4-(2-bromopyridin-4-yl)-1H-imidazol-2-yl]-N,N-dimethylaniline], for which the Ki came to 0.2 nM.

With `Cc1cc(-c2cc(-c3ccc4c(c3)OCO4)n[nH]2)cc(Br)n1` [Compound 47, 4-[3-(1,3-benzodioxol-5-yl)-1H-pyrazol-5-yl]-2-bromo-6-methylpyridine], the Ki worked out at 97 nM.

Turning to `CN(C)c1ccc(-c2c[nH]c(-c3ccnc(Br)c3)n2)cc1` [Compound 31, 4-[2-(2-bromopyridin-4-yl)-1H-imidazol-4-yl]-N,N-dimethylaniline], the Ki was 13 nM. Under `Clc1c(-c2ccc3c(c2)OCO3)n[nH]c1-c1ccnc(Br)c1` [Compound 28, 4-[3-(1,3-benzodioxol-5-yl)-4-chloro-1H-pyrazol-5-yl]-2-bromopyridine] stands 4.2 nM; under `CN(C)c1ccc(-c2cc(-c3ccnc(Cl)c3)[nH]n2)cc1` [Compound 53, 4-[5-(2-chloropyridin-4-yl)-1H-pyrazol-3-yl]-N,N-dimethylaniline], 0.8 nM.

Take `CNc1ccc(-c2cc(-c3ccnc(Cl)c3)[nH]n2)cc1` [Compound 22, 4-[5-(2-chloropyridin-4-yl)-1H-pyrazol-3-yl]-N-methylaniline]: the Ki came out at 0.3 nM.

For the compound `CNc1ccc(-c2cc(-c3cncc(Cl)n3)[nH]n2)cc1` [Compound 36, 4-[5-(6-chloropyrazin-2-yl)-1H-pyrazol-3-yl]-N-methylaniline], the Ki was 12 nM.

Regarding `Clc1cc(-c2cc(-c3ccc4c(c3)OCO4)n[nH]2)c(Cl)nn1` [Compound 48, 4-[5-(1,3-benzodioxol-5-yl)-1H-pyrazol-3-yl]-3,6-dichloropyridazine], the Ki was 59 nM.

On to `Brc1cc(-c2nc(-c3ccc4c(c3)OCO4)n[nH]2)ccn1` [Compound 30, 4-[3-(1,3-benzodioxol-5-yl)-1H-1,2,4-triazol-5-yl]-2-bromopyridine], for which the Ki came out at 12 nM.

Turning to `FC1CCN(c2ccc(-c3cc(-c4ccnc(Br)c4)[nH]n3)cc2)CC1` [Compound 52, 2-bromo-4-{3-[4-(4-fluoropiperidin-1-yl)phenyl]-1H-pyrazol-5-yl}pyridine], the Ki came out at 3.1 nM. Turning to “4-[5-(2,6-dichloropyridin-4-yl)-1H-pyrazol-3-yl]-N,N-dimethylaniline [Compound 42]”, the Ki stood at 23 nM. In the case of `Clc1cc(-c2nc(-c3ccc(N4CCCC4)cc3)c[nH]2)ccn1` [Compound 35, 2-chloro-4-{4-[4-(pyrrolidin-1-yl)phenyl]-1H-imidazol-2-yl}pyridine], the Ki was 168 nM. Take “6-[5-(2-bromopyridin-4-yl)-1H-pyrazol-3-yl]-1,3-dioxolo[4,5-b]pyridine [Compound 32]”: the Ki was 18 nM. As to `Brc1cc(-c2nc(-c3ccc4c(c3)OCO4)c[nH]2)ccn1` [Compound 33, 4-[4-(1,3-benzodioxol-5-yl)-1H-imidazol-2-yl]-2-bromopyridine], the Ki was 33 nM.

For `CN1CCN(c2ccc(-c3cc(-c4ccnc(Br)c4)[nH]n3)cc2)CC1` [Compound 26, 1-{4-[5-(2-bromopyridin-4-yl)-1H-pyrazol-3-yl]phenyl}-4-methylpiperazine], the Ki worked out at 1 nM. Under `Brc1cc(-c2c[nH]c(-c3ccc4c(c3)OCO4)n2)ccn1` [Compound 29, 4-[2-(1,3-benzodioxol-5-yl)-1H-imidazol-4-yl]-2-bromopyridine] stands 6.3 nM; under `CNc1ccc(-c2cc(-c3ccnc(F)c3)[nH]n2)cc1` [Compound 24, 4-[5-(2-fluoropyridin-4-yl)-1H-pyrazol-3-yl]-N-methylaniline], 0.8 nM; under `[2H]C([2H])([2H])Nc1ccc(-c2cc(-c3ccnc(Br)c3)[nH]n2)cc1` [Compound 21, 4-[5-(2-bromopyridin-4-yl)-1H-pyrazol-3-yl]-N-(^2H3)methylaniline], 0.3 nM. `FC1CN(c2ccc(-c3cc(-c4ccnc(Cl)c4)[nH]n3)cc2)C1` [Compound 55, 2-chloro-4-{3-[4-(3-fluoroazetidin-1-yl)phenyl]-1H-pyrazol-5-yl}pyridine]: the Ki worked out at 1.2 nM.

Take `Fc1cc(-c2cc(-c3ccc(N4CCNCC4)cc3)n[nH]2)ccn1` [Compound 49, 1-{4-[5-(2-fluoropyridin-4-yl)-1H-pyrazol-3-yl]phenyl}piperazine]: the Ki is 61 nM. Take `CNc1ccc(-c2cc(-c3cnnc(Cl)c3)[nH]n2)cc1` [Compound 39, 4-[5-(6-chloropyridazin-4-yl)-1H-pyrazol-3-yl]-N-methylaniline]: the Ki amounted to 4.2 nM.

A word on the Ki: it is a measure of affinity in units of concentration, obtained from inhibition or displacement.
